From patent US12109176B1, “Effect of glycerol on biofilm forming bacteria and fungi that changes the microbes sensitivity to pro and anti-biofilm non-toxic, non-bonded plasma amino acids and amino acid derivatives” (priority 2023, dated 2024)
Entries after “also recorded” stand apart in the source; their conditions may differ.

Experiments:
[1] = system: fungal biofilm (C. albicans); assay: Fungal biofilm inhibition assay; assay type: cell-based, Candida albicans
Method: (§1) Two types of biofilm assays were performed: an inhibition assay and a disruption assay. The inhibition assay assesses the compound's ability to prevent biofilm development, while the disruption assay assesses the compound's ability to break up an existing mature biofilm.
(§2) All bacterial biofilm solutions were prepared in Tryptic Soy Broth (TSB), supplemented with 1% glucose (henceforth referred to as TSB-G). All subsequent procedures were performed in a manner that maintained sterility. A solution of each amino acid or an amino acid derivative to be tested was prepared in weight to volume concentrations ranging from 0.1-5.0%. Amino acids and amino acid derivatives were also tested in combinations. Compound solutions were homogenized with gentle agitation in the dark (4° C., 24 hours) before use.
(§3) 32 Amino acids and 2 amino acid derivatives of the amino acid serine that occur freely in human blood were tested. […] 31 of the 32 amino acids that were tested were the L-Isomers. Glycine has no stereoisomers. The 2 amino acid derivatives, ethanolamine and phosphoethanolamine were also tested. All biofilm assays were performed using 384-well non-tissue culture-treated polystyrene plates. The fungal species tested are as follows: Candida albicans, Candida guilliermondii, Candida parapsilosis, Candida glabrata, Candida tropicalis and Candida dubliniensis. The bacterial species tested are as follows: Staphylococci (standard wild type and methicillin-resistant strain USA300), Escherichia coli, Pseudomonas aeruginosa and Staphylococcus epidermidis.
(§4) Fungal strains were streaked on Yeast Peptone Dextrose (YPD) agar plates and incubated at 30° C. for 48 hours. A single colony from each strain to be tested was inoculated into YPD broth and grown for 12 hours at 30° C., shaking at 225 rpm. […] The cells were allowed to adhere to the plate for 90 minutes at 37° C. with shaking (350 rpm). […] The plate was further incubated for 24 hours at 37° C. with shaking (350 rpm). Media was carefully aspirated and the biofilm was measured by optical density at 600 nm. […] The cells were allowed to adhere to the plate for 90 minutes at 37° C. with shaking (350 rpm). […] The plate was further incubated for 24 hours at 37° C. with shaking (350 rpm). […] The plate was further incubated for 24 hours at 37° C. with shaking (350 rpm). Media was carefully aspirated, and the biofilm was measured by optical density at 600 nm.

fungal biofilm = assay: In vitro testing on fungal biofilm (inhibition and/or disruption); assay type: cell-based
Method: as §1, §2, §3, §4

[2] = system: bacterial (S. aureus) biofilm; assay: Bacterial biofilm inhibition assay; assay type: cell-based, Staphylococcus aureus
Method: as §1, §2, §3
(§5) Bacterial strains were streaked on Blood Agar plates (5% sheep blood in Tryptic Soy Broth) and incubated at 37° C. for 24 hours. A single colony from each strain to be tested was inoculated in a TSB broth and grown for 12 hours, at 37° C. with shaking (225 rpm). For the bacterial biofilm inhibition assays, 1 μL of saturated overnight cell culture was added to either 80 μL of TSB-G, or TSB-G supplemented with the amino acid compound solution to be tested, in a 384-well plate. The cells were allowed to adhere to the plate for 60 minutes at 37° C. without shaking. The media was carefully aspirated and 80 μL of TSB-G, or TSB-G supplemented with the amino acid compound solution was added to the plate. The plate was further incubated for 24 hours at 37° C. without shaking. Media was carefully aspirated and the biofilm was measured by optical density at 600 nm. Eight or twelve replicates were performed for each tested condition and the reported values are normalized to the control (TSB-G media only). For the bacterial biofilm disruption assays, 80 µL of TSB-G was added to the plate, along with 1 μL of overnight cell culture. The cells were allowed to adhere to the plate for 60 minutes at 37° C. with no shaking. The media was carefully aspirated and 80 μL of TSB-G was added to the plate. The plate was further incubated for 24 hours at 37° C. with no shaking. Media was carefully aspirated from the mature biofilm and 80 μL of TSB-G, or TSB-G supplemented with the amino acid to be tested, was gently added to the plate. The plate was further incubated for 24 hours at 37° C. without shaking. Media was aspirated and the biofilm was measured by optical density at 600 nm. Twelve replicates were performed for each tested condition and the reported values are normalized to the control (TSB-G media only).

[3] = system: bacterial (S. aureus) biofilm; assay: Bacterial biofilm disruption assay; assay type: cell-based, Staphylococcus aureus
Method: as §1, §2, §3, §5

bacterial biofilm = assay: In vitro testing on bacterial biofilm (inhibition and/or disruption); assay type: cell-based
Method: as §1, §2, §3, §5

[4] = system: fungal biofilm (C. albicans); assay: Fungal biofilm disruption assay; assay type: cell-based, Candida albicans
Method: as §1, §2, §3, §4

[5] = system: bacterial (S. aureus) biofilm and fungal biofilm (C. albicans); assay: Biofilm inhibition assay, bacterial and fungal taken together; assay type: cell-based; conditions: symbol marks the assay
Method: as §1, §2, §3, §4
as §5, with “plate.” for “plate. The plate was further incubated for 24 hours at 37° C. without shaking. Media was aspirated and the biofilm was measured by optical density at 600 nm. Twelve replicates were performed for each tested condition and the reported values are normalized to the control (TSB-G media only).”

[6] = Table F, in the presence of a sufficient concentration of glycerol
[7] = Table E, in the absence of an infusion of glycerol
[8] = in the presence of a therapeutic concentration of glycerol

SMILES: NCCO [Ethanolamine, ethanolamine]
- Reduce or Inhibit F Biofilm (squares: Inhibition Biofilm Assay) ([1]; Table D, 0.1 to 5.0%): ▪ (Single square [ie. ▪] signifies little effect on the Inhibition Biofilm Assay (from about 10 to less than 30%))
- Reduce or Inhibit F Biofilm (squares: Inhibition Biofilm Assay) [1, 6]: ▪ (Single square [ie. ▪] signifies little effect on the Inhibition Biofilm Assay (from about 10 to less than 30%))
- effect on fungal biofilm (in words) (fungal biofilm; in vitro testing): antifungal biofilm effect

SMILES: O=C(O)[C@@H]1C[C@@H](O)CN1 [Hydroxyproline, Trans-4-hydroxy-L-proline]
- Reduce or Inhibit F Biofilm (squares: Inhibition Biofilm Assay) ([1]; Table D, 0.1 to 5.0%): ▪ (Single square [ie. ▪] signifies little effect on the Inhibition Biofilm Assay (from about 10 to less than 30%))
- Reduce or Inhibit F Biofilm (squares: Inhibition Biofilm Assay) [1, 6]: ▪ (Single square [ie. ▪] signifies little effect on the Inhibition Biofilm Assay (from about 10 to less than 30%))
- Reduce or Inhibit B Biofilm (squares: Inhibition Biofilm Assay) ([2]; Table D, 0.1 to 5.0%): ▪ (Single square [ie. ▪] signifies little effect on the Inhibition Biofilm Assay (from about 10 to less than 30%))
- Reduce or Inhibit B Biofilm (squares: Inhibition Biofilm Assay) [2, 6]: ▪ (Single square [ie. ▪] signifies little effect on the Inhibition Biofilm Assay (from about 10 to less than 30%))
- Reduce or Inhibit B Biofilm (dots: Disruption Biofilm Assay) ([3]; Table D, 0.1 to 5.0%): ● (Single dot [ie. ●] signifies little effect on the Disruption Biofilm Assay (from about 10 to less than 30%))
- Reduce or Inhibit B Biofilm (dots: Disruption Biofilm Assay) [3, 6]: ● (Single dot [ie. ●] signifies little effect on the Disruption Biofilm Assay (from about 10 to less than 30%))
- effect on bacterial biofilm (in words) (bacterial biofilm; in vitro testing): antibacterial biofilm effect
- effect on fungal biofilm (in words) (fungal biofilm; in vitro testing): antifungal biofilm effects

SMILES: N[C@@H](COP(=O)(O)O)C(=O)O [Phosphoserine, O-phospho-L-serine]
- Reduce or Inhibit F Biofilm (dots: Disruption Biofilm Assay) ([4]; Table D, 0.1 to 5.0%): ● (Single dot [ie. ●] signifies little effect on the Disruption Biofilm Assay (from about 10 to less than 30%))
- Reduce or Inhibit F Biofilm (dots: Disruption Biofilm Assay) [4, 6]: ● (Single dot [ie. ●] signifies little effect on the Disruption Biofilm Assay (from about 10 to less than 30%))
- Reduce or Inhibit B Biofilm (dots: Disruption Biofilm Assay) ([3]; Table D, 0.1 to 5.0%): ● (Single dot [ie. ●] signifies little effect on the Disruption Biofilm Assay (from about 10 to less than 30%))
- Reduce or Inhibit B Biofilm (dots: Disruption Biofilm Assay) [3, 6]: ● (Single dot [ie. ●] signifies little effect on the Disruption Biofilm Assay (from about 10 to less than 30%))
- Neutral (square: Inhibition Biofilm Assay) ([5]; Table D, Neutral = no effect on the biofilm): ▪ (Single square [ie. ▪] signifies little effect on the Inhibition Biofilm Assay (from about 10 to less than 30%))
- Neutral (square: Inhibition Biofilm Assay) [5, 7]: ▪ (Single square [ie. ▪] signifies little effect on the Inhibition Biofilm Assay (from about 10 to less than 30%))
- Neutral (square: Inhibition Biofilm Assay) [5, 6]: ▪ (Single square [ie. ▪] signifies little effect on the Inhibition Biofilm Assay (from about 10 to less than 30%))
- effect on bacterial biofilm (in words) (bacterial biofilm; in vitro testing): antibacterial biofilm effect
- effect on fungal biofilm (in words) (fungal biofilm; in vitro testing): antifungal biofilm effects

SMILES: CC(C)[C@H](N)C(=O)O [Valine, L-valine]
- Promote F Biofilm (dots: Disruption Biofilm Assay) [4, 7]: ● (Single dot [ie. ●] signifies little effect on the Disruption Biofilm Assay (from about 10 to less than 30%))
- Reduce or Inhibit B Biofilm (dots: Disruption Biofilm Assay) ([3]; Table D, 0.1 to 5.0%): ● (Single dot [ie. ●] signifies little effect on the Disruption Biofilm Assay (from about 10 to less than 30%))
- Reduce or Inhibit B Biofilm (dots: Disruption Biofilm Assay) [3, 6]: ● (Single dot [ie. ●] signifies little effect on the Disruption Biofilm Assay (from about 10 to less than 30%))
- effect on bacterial biofilm (in words) (bacterial biofilm; [8]): anti-bacterial biofilm effect
- effect on bacterial biofilm (in words) (bacterial biofilm; in the presence of a therapeutic concentration of glycerol, listed as valine): anti-bacterial biofilm effect became dominant
- effect on bacterial biofilm (in words) (bacterial biofilm; in vitro testing): anti-bacterial biofilm effect
- effect on fungal biofilm (in words) (fungal biofilm; [8]): lost its pro-fungal biofilm effect
- effect on fungal biofilm (in words) (fungal biofilm; in vitro testing): supported fungal biofilm formation; also recorded: pro-fungal biofilm effect; also recorded: promoted fungal biofilm formation
- effect on fungal biofilm (in words) (fungal biofilm; in vitro testing, listed as valine): supported the formation of biofilm made by biofilm-forming fungi
